According to ChEMBL document CHEMBL1201862, “PubChem BioAssay data set” (2004):
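Five concentrations, 48 hours, 96-well plates. At the GI50, growth is halved.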 Active and inactive are the calls of the source. No stated cut-off is given here; in the data, active = GI50 up to about 1.1 µM and inactive = higher.

Key:
Test in all cases: DTP human tumour cell line panel, 48 h
MDA-MB-231 = tested on: MDA-MB-231
HOP-92 = tested on: HOP-92
RPMI-8226 = tested on: RPMI-8226
Malme-3M = tested on: Malme-3M
SNB-19 = tested on: SNB-19
NCI-H460 = tested on: NCI-H460
NCI-H226 = tested on: NCI-H226
SNB-75 = tested on: SNB-75
IGROV-1 = tested on: IGROV-1
M14 = tested on: M14
RXF 393 = tested on: RXF 393
K562 = tested on: K562
MDA-N = tested on: MDA-N
HOP-62 = tested on: HOP-62
OVCAR-5 = tested on: OVCAR-5
SK-MEL-5 = tested on: SK-MEL-5
LOX IMVI = tested on: LOX IMVI
A549 = tested on: A549
HT-29 = tested on: HT-29
NCI/ADR-RES = tested on: NCI/ADR-RES
UACC-62 = tested on: UACC-62
786-0 = tested on: 786-0
OVCAR-4 = tested on: OVCAR-4
TK-10 = tested on: TK-10
UACC-257 = tested on: UACC-257
SK-MEL-28 = tested on: SK-MEL-28
U-251 = tested on: U-251
SF-295 = tested on: SF-295
SF-268 = tested on: SF-268
DU-145 = tested on: DU-145
SW-620 = tested on: SW-620
OVCAR-8 = tested on: OVCAR-8
T47D = tested on: T47D
ACHN = tested on: ACHN
NCI-H23 = tested on: NCI-H23
SR = tested on: SR
CAKI-1 = tested on: CAKI-1
SF-539 = tested on: SF-539
A498 = tested on: A498
SK-OV-3 = tested on: SK-OV-3
MCF7 = tested on: MCF7
Hs-578T = tested on: Hs-578T
HCC 2998 = tested on: HCC 2998
SK-MEL-2 = tested on: SK-MEL-2
COLO 205 = tested on: COLO 205
HCT-15 = tested on: HCT-15
EKVX = tested on: EKVX
UO-31 = tested on: UO-31
MDA-MB-435 = tested on: MDA-MB-435
KM12 = tested on: KM12
PC-3 = tested on: PC-3
HL-60 = tested on: HL-60
NCI-H522 = tested on: NCI-H522
MOLT-4 = tested on: MOLT-4
CCRF-CEM = tested on: CCRF-CEM
OVCAR-3 = tested on: OVCAR-3

Measured: GI50

C[C@@H](Cl)[C@H]1CCCN(Cc2ccc(Br)cc2)C1
inactive: MDA-MB-231 > 12.5 µM | HOP-92 > 12.5 µM | RPMI-8226 > 12.5 µM | Malme-3M > 12.5 µM | SNB-19 > 12.5 µM | NCI-H460 > 12.5 µM | NCI-H226 > 12.5 µM | SNB-75 > 12.5 µM | IGROV-1 > 12.5 µM | M14 > 12.5 µM | RXF 393 > 12.5 µM | K562 > 12.5 µM | MDA-N > 12.5 µM | HOP-62 > 12.5 µM | OVCAR-5 > 12.5 µM | SK-MEL-5 > 12.5 µM | LOX IMVI > 12.5 µM | A549 > 12.5 µM | HT-29 > 12.5 µM | NCI/ADR-RES > 12.5 µM | UACC-62 > 12.5 µM | 786-0 > 12.5 µM | OVCAR-4 > 12.5 µM | TK-10 > 12.5 µM | UACC-257 > 12.5 µM | SK-MEL-28 > 12.5 µM | U-251 > 12.5 µM | SF-295 > 12.5 µM | SF-268 > 12.5 µM | DU-145 > 12.5 µM | SW-620 > 12.5 µM | OVCAR-8 > 12.5 µM | T47D > 12.5 µM | ACHN > 12.5 µM | NCI-H23 > 12.5 µM | SR > 12.5 µM | CAKI-1 > 12.5 µM | SF-539 > 12.5 µM | A498 > 12.5 µM | SK-OV-3 > 12.5 µM | MCF7 > 12.5 µM | Hs-578T > 12.5 µM | HCC 2998 > 12.5 µM | SK-MEL-2 > 12.5 µM | COLO 205 > 12.5 µM | EKVX > 12.5 µM | UO-31 > 12.5 µM | MDA-MB-435 > 12.5 µM | KM12 > 12.5 µM | PC-3 > 12.5 µM | HL-60 > 12.5 µM | NCI-H522 > 12.5 µM | MOLT-4 > 12.5 µM | CCRF-CEM > 12.5 µM | OVCAR-3 > 12.5 µM
> 12.5 µM: HCT-15
